Drawing on patent US11999715B2, “ASK1 inhibiting agents” (BIOGEN MA INC., priority 2018, dated 2024), this text covers Kp uu and IC50 for six compounds.

Series [1] in a line: In vivo brain penetration, rat Kpuu study. To be noted: brain and plasma (unbound concentrations), IV infusion for four hours (1 mg/kg) to steady state, Kpuu=Cu,b/Cu,p.
Experimental: Example 113: In Vivo Brain Penetration To evaluate the CNS penetration of the compounds described herein, several compounds were selected for in vivo rat Kpuu studies. In these experiments the compounds are administered via an IV infusion (using N,N-dimethylacetamide:ethanol:1,2-propylene glycol:water in a 1:1:3:5 ratio as the vehicle) in the carotid artery for a period of four hours (1 mg/kg, 0.1 mg/mL) to reach steady state. After this time the plasma and brain concentration levels are quantified, and the values are adjusted by the measured protein binding in plasma and brain homogenate to calculate the Kpuu (see Di, […] . Blood-Brain Barrier in Drug Discovery (Wiley)) according to the equation below. Kpuu=Cu,b/Cu,p Wherein: • Cu,b=Unbound concentration in brain (C×fu,b). (C=concentration at steady state; fu,b=fraction unbound in brain) • And in which: Cu,p=Unbound concentration in plasma (C×fu,p). (C=concentration at steady state; fu,p=fraction unbound in plasma) Plasma and brain protein binding values were generated via the Rapid Equilibrium Dialysis method. The compound of interest was incubated in K2EDTA plasma and brain homogenate (homogenized 1:7 (w:v) in 1×PBS) purchased from BioIVT (Westbury, NY), opposite a buffered compartment of 100 mM Potassium phosphate/150 mM Sodium chloride, pH 7.4, at 1 μM for 4 hr and 6 hr respectively. At the conclusion of incubation samples were taken from both matrix and buffered compartments, matrix-matched using blank buffer and matrix, extracted with acetonitrile, diluted with water, and analyzed utilizing an Agilent RapidFire 365 high-throughput LC coupled with MS/MS detection via an AB Sciex 5500. Free fractions (fu) were then calculated by comparing internal standard/analyte peak-area ratios of matrix and buffered compartments. […] Total drug concentration in plasma and brain tissue was measured via well-established bioanalytical extraction (protein precipitation) and detection methods (LC-MS/MS).
The next series deals with T1, ASK1/MAP3K5 (Homo sapiens, UniProt Q99683).
T1 sequence (Q99683 1-1374): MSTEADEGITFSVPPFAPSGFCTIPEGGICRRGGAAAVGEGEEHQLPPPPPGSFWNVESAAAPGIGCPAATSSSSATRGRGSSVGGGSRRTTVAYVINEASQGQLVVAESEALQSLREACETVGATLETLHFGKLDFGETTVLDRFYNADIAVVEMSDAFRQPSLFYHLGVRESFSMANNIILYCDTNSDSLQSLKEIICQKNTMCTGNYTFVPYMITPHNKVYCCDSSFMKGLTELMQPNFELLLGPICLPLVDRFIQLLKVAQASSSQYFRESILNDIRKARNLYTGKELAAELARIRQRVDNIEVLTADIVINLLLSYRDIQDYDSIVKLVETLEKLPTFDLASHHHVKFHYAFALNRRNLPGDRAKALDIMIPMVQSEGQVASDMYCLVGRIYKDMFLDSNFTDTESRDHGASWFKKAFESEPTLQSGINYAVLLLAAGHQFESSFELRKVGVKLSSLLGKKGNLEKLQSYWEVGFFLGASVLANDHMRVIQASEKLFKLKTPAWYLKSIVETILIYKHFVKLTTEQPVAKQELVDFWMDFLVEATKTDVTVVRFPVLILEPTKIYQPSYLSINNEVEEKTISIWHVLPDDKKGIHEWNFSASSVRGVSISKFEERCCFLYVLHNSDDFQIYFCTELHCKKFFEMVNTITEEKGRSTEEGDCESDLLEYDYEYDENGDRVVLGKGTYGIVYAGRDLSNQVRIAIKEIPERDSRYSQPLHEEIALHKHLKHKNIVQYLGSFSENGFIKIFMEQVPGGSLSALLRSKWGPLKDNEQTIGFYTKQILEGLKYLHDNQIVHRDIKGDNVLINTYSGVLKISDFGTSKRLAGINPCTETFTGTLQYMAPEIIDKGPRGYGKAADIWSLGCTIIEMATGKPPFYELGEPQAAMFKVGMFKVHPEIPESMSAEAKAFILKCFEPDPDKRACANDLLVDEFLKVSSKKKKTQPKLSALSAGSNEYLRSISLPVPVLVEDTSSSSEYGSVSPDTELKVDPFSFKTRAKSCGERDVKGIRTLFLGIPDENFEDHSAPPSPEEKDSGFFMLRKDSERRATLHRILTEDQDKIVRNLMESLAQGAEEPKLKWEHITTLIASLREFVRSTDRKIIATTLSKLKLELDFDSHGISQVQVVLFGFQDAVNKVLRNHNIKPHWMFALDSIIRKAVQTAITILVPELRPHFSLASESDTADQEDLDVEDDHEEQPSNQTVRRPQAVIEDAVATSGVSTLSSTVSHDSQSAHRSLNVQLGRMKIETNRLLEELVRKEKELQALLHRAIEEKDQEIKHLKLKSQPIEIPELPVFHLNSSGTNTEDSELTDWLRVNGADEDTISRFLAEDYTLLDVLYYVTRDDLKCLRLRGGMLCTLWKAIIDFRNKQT
Nature of the series: ASK1/MAP3K5 kinase assay by Reaction Biology Corp. (headed ASK1 TR-FRET Assay). The class given is biochemical. The conditions noted are these: 20 μM myelin basic protein, 10 μM ATP. Put shortly:
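Radiometric filter-binding assay with ASK1/MAP3K5, 20 μM MBP substrate and 10 μM ATP plus ^33P-ATP in HEPES pH 7.5 buffer with 1% DMSO. Compounds were preincubated with kinase 20 min, and the reaction then ran 2 hours at room temperature.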

For series [2], the target named is T2, ASK1 T838 auto phosphorylation (Homo sapiens, UniProt Q99683).
T2 sequence (Q99683 1-1374): T1 sequence (Q99683 1-1374)
The series can be described thus: ASK1 (AUTO PHOS T838) assay, MSD format, in HEK-293T cells transfected with ASK1-V5. To be noted: ASK1 T838 auto phosphorylation in HEK-293T cells, 1 hr compound incubation; class symbols. Format: cell-based. The gist of the method:
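HEK-293T cells transiently transfected with full-length ASK1-V5 plasmid were replated, then treated 1 h at 37 °C with a 10-point, 3-fold series from 20 μM. Lysates were probed by MSD with anti-pASK1 T838 and a sulfo-tag secondary, read by chemiluminescence. IC50 came from a 4-parameter fit of normalized % activity.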

For `C[C@@H](n1cnnc1-c1cccc(NC(=O)c2cn(C)nc2C(F)F)n1)C(F)(F)F` [Example 23, (R)-3-(Difluoromethyl)-1-methyl-N-(6-(4-(1,1,1-trifluoropropan-2-yl)-4H-1,2,4-triazol-3-yl)pyridin-2-yl)-1H-pyrazole-4-carboxamide], the Kp uu at 4 h in series [1] came to 0.14. Moreover, the IC50 against ASK1/MAP3K5 (class symbols) is ≤ 100 nM; in series [2], ≤ 1000 nM.

In series [1], `C=CCn1cc(C(=O)Nc2cccc(-c3nncn3C(C)C(F)(F)F)n2)c(OC)n1` (stereo not drawn) [Example 56, 1-Allyl-3-methoxy-N-(6-(4-(1,1,1-trifluoropropan-2-yl)-4H-1,2,4-triazol-3-yl)pyridin-2-yl)-1H-pyrazole-4-carboxamide] gave a Kp uu at 4 h of 0.33. The IC50 was ≤ 100 nM at ASK1/MAP3K5 (class symbols) and ≤ 1000 nM in series [2].

Consider `COc1nn(-c2ncccc2C)cc1C(=O)Nc1cccc(-c2nncn2C(C)C)n1` [Example 62, N-(6-(4-Isopropyl-4H-1,2,4-triazol-3-yl)pyridin-2-yl)-3-methoxy-1-(3-methylpyridin-2-yl)-1H-pyrazole-4-carboxamide], for which, in series [1], the Kp uu at 4 h turned out to be 0.16. Besides, the values for the IC50 (against ASK1/MAP3K5 (class symbols); in series [2]) were ≤ 100 nM and ≤ 1000 nM, respectively.

Turning to `COc1nn(CC(F)(F)F)cc1C(=O)Nc1cccc(-c2cncn2C(C)C)n1` [Example 106, N-(6-(1-Isopropyl-1H-imidazol-5-yl)pyridin-2-yl)-3-methoxy-1-(2,2,2-trifluoroethyl)-1H-pyrazole-4-carboxamide], the IC50 against ASK1/MAP3K5 (class symbols) is ≤ 100 nM; in series [2], ≤ 1000 nM.

Turning to `COc1nn(C)cc1C(=O)Nc1cccc(-c2nncn2C2COC2)n1` [Example 107, 3-Methoxy-1-methyl-N-(6-(4-(oxetan-3-yl)-4H-1,2,4-triazol-3-yl)pyridin-2-yl)-1H-pyrazole-4-carboxamide], the half-inhibitory concentration (IC50) against ASK1/MAP3K5 (class given in words) was ≥ 10000 nM; in series [2], > 10000 nM.

`COc1nn(C)cc1C(=O)Nc1cccc(-c2nncn2C2CCOCC2)n1` [Example 108, 3-Methoxy-1-methyl-N-(6-(4-(tetrahydro-2H-pyran-4-yl)-4H-1,2,4-triazol-3-yl)pyridin-2-yl)-1H-pyrazole-4-carboxamide]: the IC50 on ASK1/MAP3K5 (class symbols) was 100 to 1000 nM; in series [2], 1000 to 10000 nM.

The IC50 is the point on the concentration scale where inhibition reaches its midpoint.
